In PubChem BioAssay (NCI):
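Cultured in 96-well plates, cells were exposed to test compound for 48 hours across five concentrations. GI50 is the concentration that inhibits growth by half. At the TGI there is no net growth.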

What was measured:
Assay in all cases: inhibition of tumour cell growth, NCI panel, 48 h
IGROV1 ovarian = tested on: IGROV1 ovarian
MDA-MB-435 = tested on: MDA-MB-435
OVCAR-4 ovarian = tested on: OVCAR-4 ovarian
SNB-75 CNS = tested on: SNB-75 CNS
NCI-H23 lung = tested on: NCI-H23 lung
ACHN renal = tested on: ACHN renal
EKVX NSCLC = tested on: EKVX NSCLC
SK-OV-3 ovarian = tested on: SK-OV-3 ovarian
MDA-MB-231 breast = tested on: MDA-MB-231 breast
MCF7 breast = tested on: MCF7 breast
K-562 leukemia = tested on: K-562 leukemia
BT-549 breast = tested on: BT-549 breast
SNB-19 CNS = tested on: SNB-19 CNS
COLO 205 colon = tested on: COLO 205 colon
UACC-257 melanoma = tested on: UACC-257 melanoma
NCI-H522 lung = tested on: NCI-H522 lung
OVCAR-8 ovarian = tested on: OVCAR-8 ovarian
NCI/ADR-RES ovarian = tested on: NCI/ADR-RES ovarian
HOP-62 NSCLC = tested on: HOP-62 NSCLC
NCI-H460 lung = tested on: NCI-H460 lung
SF-539 CNS = tested on: SF-539 CNS
SW-620 colon = tested on: SW-620 colon
CAKI-1 renal = tested on: CAKI-1 renal
SR leukemia = tested on: SR leukemia
UACC-62 melanoma = tested on: UACC-62 melanoma
KM12 colon = tested on: KM12 colon
SK-MEL-28 melanoma = tested on: SK-MEL-28 melanoma
U251 CNS = tested on: U251 CNS
LOX IMVI melanoma = tested on: LOX IMVI melanoma
M14 melanoma = tested on: M14 melanoma
SK-MEL-5 melanoma = tested on: SK-MEL-5 melanoma
786-0 renal = tested on: 786-0 renal
SN12C renal = tested on: SN12C renal
SK-MEL-2 melanoma = tested on: SK-MEL-2 melanoma
SF-295 CNS = tested on: SF-295 CNS
OVCAR-5 ovarian = tested on: OVCAR-5 ovarian
MALME-3M melanoma = tested on: MALME-3M melanoma
HL-60(TB) leukemia = tested on: HL-60(TB) leukemia
HCC-2998 colon = tested on: HCC-2998 colon
HCT-15 colon = tested on: HCT-15 colon
DU-145 prostate = tested on: DU-145 prostate
MOLT-4 leukemia = tested on: MOLT-4 leukemia
A498 renal = tested on: A498 renal
HT29 colon = tested on: HT29 colon
PC-3 prostate = tested on: PC-3 prostate
TK-10 renal = tested on: TK-10 renal
RPMI-8226 leukemia = tested on: RPMI-8226 leukemia
A549 NSCLC = tested on: A549 NSCLC
NCI-H226 lung = tested on: NCI-H226 lung
T-47D breast = tested on: T-47D breast
HOP-92 NSCLC = tested on: HOP-92 NSCLC
SF-268 CNS = tested on: SF-268 CNS
UO-31 renal = tested on: UO-31 renal
HCT-116 colon = tested on: HCT-116 colon
OVCAR-3 ovarian = tested on: OVCAR-3 ovarian
HS 578T breast = tested on: HS 578T breast
CCRF-CEM leukemia = tested on: CCRF-CEM leukemia

Work on `Oc1cccc(-c2nc(-c3n[nH]c(=S)n3-c3ccccc3)cc3c2[nH]c2ccccc23)c1` yielded a GI50 (IGROV1 ovarian) of 2.29 µM, a TGI (IGROV1 ovarian) of 11.2 µM and a GI50 (MDA-MB-435) of 1.26 µM. The TGI (MDA-MB-435) was 4.5 µM, the GI50 (OVCAR-4 ovarian) was 3.79 µM and the TGI (OVCAR-4 ovarian) was 17.3 µM. For the same compound, the GI50 (SNB-75 CNS) was 1.72 µM, the TGI (SNB-75 CNS) was 5.89 µM and the GI50 (NCI-H23 lung) was 3.97 µM. It also gave a TGI (NCI-H23 lung) of 19.7 µM, a GI50 (ACHN renal) of 3.95 µM and a TGI (ACHN renal) of 14.6 µM. For the same compound, the GI50 (EKVX NSCLC) was 4 µM, the TGI (EKVX NSCLC) was 23.4 µM and the GI50 (SK-OV-3 ovarian) was 3.02 µM. The TGI (SK-OV-3 ovarian) was 8.72 µM, the GI50 (MDA-MB-231 breast) was 3.19 µM and the TGI (MDA-MB-231 breast) was 13 µM. The GI50 (MCF7 breast) was 3.37 µM, the TGI (MCF7 breast) was 13.6 µM and the GI50 (K-562 leukemia) was 3.16 µM. For the same compound, the TGI (K-562 leukemia) was 21.6 µM, the GI50 (BT-549 breast) was 2.67 µM and the TGI (BT-549 breast) was 6.8 µM. For the same compound, the GI50 (SNB-19 CNS) was 3.11 µM, the TGI (SNB-19 CNS) was 11.4 µM and the GI50 (COLO 205 colon) was 2.45 µM. It also gave a TGI (COLO 205 colon) of 7.22 µM, a GI50 (UACC-257 melanoma) of 3.22 µM and a TGI (UACC-257 melanoma) of 9.88 µM. The GI50 (NCI-H522 lung) was 1.8 µM, the TGI (NCI-H522 lung) was 4.98 µM and the GI50 (OVCAR-8 ovarian) was 3.09 µM. For the same compound, the TGI (OVCAR-8 ovarian) was 8.83 µM, the GI50 (NCI/ADR-RES ovarian) was 13.2 µM and the TGI (NCI/ADR-RES ovarian) was 69.7 µM. The GI50 (HOP-62 NSCLC) was 2.24 µM, the TGI (HOP-62 NSCLC) was 7.96 µM and the GI50 (NCI-H460 lung) was 3.1 µM. It also gave a TGI (NCI-H460 lung) of 9.5 µM, a GI50 (SF-539 CNS) of 1.8 µM and a TGI (SF-539 CNS) of 3.96 µM. The GI50 (SW-620 colon) was 3.63 µM, the TGI (SW-620 colon) was 11.9 µM and the GI50 (CAKI-1 renal) was 2.81 µM. For the same compound, the TGI (CAKI-1 renal) was 11.9 µM, the GI50 (SR leukemia) was 3.07 µM and the TGI (SR leukemia) was > 100 µM. It also gave a GI50 (UACC-62 melanoma) of 2.4 µM, a TGI (UACC-62 melanoma) of 8.77 µM and a GI50 (KM12 colon) of 3.15 µM. It also gave a TGI (KM12 colon) of 11.7 µM, a GI50 (SK-MEL-28 melanoma) of 1.81 µM and a TGI (SK-MEL-28 melanoma) of 7.28 µM. For the same compound, the GI50 (U251 CNS) was 2.98 µM, the TGI (U251 CNS) was 11 µM and the GI50 (LOX IMVI melanoma) was 1.8 µM. It also gave a TGI (LOX IMVI melanoma) of 3.83 µM, a GI50 (M14 melanoma) of 2.72 µM and a TGI (M14 melanoma) of 10.3 µM. The GI50 (SK-MEL-5 melanoma) was 3.15 µM, the TGI (SK-MEL-5 melanoma) was 11 µM and the GI50 (786-0 renal) was 3.19 µM. The TGI (786-0 renal) was 11 µM, the GI50 (SN12C renal) was 4.03 µM and the TGI (SN12C renal) was 15.5 µM. It also gave a GI50 (SK-MEL-2 melanoma) of 1.88 µM, a TGI (SK-MEL-2 melanoma) of 6.08 µM and a GI50 (SF-295 CNS) of 2.16 µM. The TGI (SF-295 CNS) was 5.75 µM, the GI50 (OVCAR-5 ovarian) was 4.38 µM and the TGI (OVCAR-5 ovarian) was 15.7 µM. The GI50 (MALME-3M melanoma) was 4.05 µM, the TGI (MALME-3M melanoma) was 17.4 µM and the GI50 (HL-60(TB) leukemia) was 3.38 µM. It also gave a TGI (HL-60(TB) leukemia) of 8.98 µM, a GI50 (HCC-2998 colon) of 2.17 µM and a TGI (HCC-2998 colon) of 4.53 µM. It also gave a GI50 (HCT-15 colon) of 2.88 µM, a TGI (HCT-15 colon) of 10.9 µM and a GI50 (DU-145 prostate) of 2.57 µM. For the same compound, the TGI (DU-145 prostate) was 7.02 µM, the GI50 (MOLT-4 leukemia) was 3.78 µM and the TGI (MOLT-4 leukemia) was 14 µM. The GI50 (A498 renal) was 2.15 µM, the TGI (A498 renal) was 5.8 µM and the GI50 (HT29 colon) was 2.55 µM. It also gave a TGI (HT29 colon) of 6.18 µM, a GI50 (PC-3 prostate) of 2.63 µM and a TGI (PC-3 prostate) of 10.9 µM. For the same compound, the GI50 (TK-10 renal) was 4.08 µM, the TGI (TK-10 renal) was 16.3 µM and the GI50 (RPMI-8226 leukemia) was 2.69 µM. The TGI (RPMI-8226 leukemia) was 7.86 µM, the GI50 (A549 NSCLC) was 2.89 µM and the TGI (A549 NSCLC) was 11.1 µM. The GI50 (NCI-H226 lung) was 3.92 µM, the TGI (NCI-H226 lung) was 18.6 µM and the GI50 (T-47D breast) was 2.14 µM. For the same compound, the TGI (T-47D breast) was 8.18 µM, the GI50 (HOP-92 NSCLC) was 4.31 µM and the TGI (HOP-92 NSCLC) was 18.1 µM. The GI50 (SF-268 CNS) was 3.56 µM, the TGI (SF-268 CNS) was 14.7 µM and the GI50 (UO-31 renal) was 2.09 µM. It also gave a TGI (UO-31 renal) of 11.7 µM, a GI50 (HCT-116 colon) of 3.28 µM and a TGI (HCT-116 colon) of 9.82 µM. The GI50 (OVCAR-3 ovarian) was 2.18 µM, the TGI (OVCAR-3 ovarian) was 5.73 µM and the GI50 (HS 578T breast) was 3.43 µM. The TGI (HS 578T breast) was 24.6 µM, the GI50 (CCRF-CEM leukemia) was 3.85 µM and the TGI (CCRF-CEM leukemia) was 18.7 µM.
